Measured values from patent US20250296938A1, “Compounds that Interact with the Ras Superfamily for the Treatment of Cancers, Inflammatory Diseases, Rasopathies, and Fibrotic Disease” (SHY Therapeutics, LLC, priority 2018, published 2025).

Tests used:
AKT phosphorylation = experiment: Western AKT cell-based phosphorylation assay, PANC-1; conditions: Homo sapiens, 6 hours, EGF stimulation, PANC-1
Summary of the method: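 PANC-1 cells, serum-starved overnight in 0.5% FBS, were treated with compound at 10 μM (0.3% DMSO) for 6 h at 37 °C and then stimulated with 1.5 ng/ml EGF for 15 min. Lysates (15–50 μg) were immunoblotted for phospho-Akt Ser473, with ECL detection.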

MAPK phosphorylation [1] = experiment: Western MAPK cell-based phosphorylation assay, NCI H1299; conditions: Homo sapiens; for inhibition at 10 µM: 6 hours, EGF stimulation
Method: (§1) Cell lines: Human NSCLC cells NCI-H1975 and NCI-H1299, and tumor-derived pancreatic cancer cell lines Panc-1, MIA-PaCa-2, and BxPC3, were all purchased from American Type Culture Collection and grown in complete RPMI medium (BxPC3, NCI-H1975 and NCI-H1299) or DMEM-High Glucose (Panc1 and MIA-PaCa-2), supplemented with penicillin (100 U/mL), streptomycin (100 μg/mL), and 10% heat-inactivated FBS at 37° C. in a humidified incubator with 5% CO2.
(§2) Method: Cells were plated at 350000 cells/well density in a 12-well plate, allowed 3 hours to adhere to the plate, then starved in the appropriate medium in the presence of 0.5% FBS overnight. The small molecules to be tested were added to the cells in the final concentration of 10 μM in the presence of 0.3% DMSO for 6 hours incubation at 37° C. For IC50 value determination, serial dilutions of compounds were added to cells under the same conditions. Next, cells were stimulated with 1.5 ng/ml EGF for 15 minutes then cells were lysed with lysis buffer containing 1% Triton X-100, EDTA, and Halt™ Protease & Phosphatase Inhibitor Cocktail (Thermo Scientific). Protein concentration was assessed by BCA protein assay (Thermo Scientific). Phosphorylation level of MAPK was determined by western blot.
(§3) Western blot protocol: Equal amounts of protein (15-50 μg) were separated by SDS-PAGE and transferred to nitrocellulose membranes (Invitrogen by Thermo Fisher Scientific). The membrane was stained with Ponceau S Stain (Boston BioProducts) to verify uniform protein loading. Membranes were blocked with 10% milk and phosphorylation levels of MAPK were assessed by incubating overnight at 4° C. with anti-phospho-p44/42 (Thr202/Tyr204) antibody (Cell Signaling) followed by HRP-conjugated secondary antibody (Jackson Immunoresearch, West Grove, PA). Bands were incubated in Amersham ECL Prime Western Blotting Detection Reagent (GE Healthcare) and visualized using the ChemiDoc MP imaging system (Bio-Rad).

MAPK phosphorylation [2] = experiment: Western MAPK cell-based phosphorylation assay, MIA PaCa-2; conditions: Homo sapiens; for inhibition at 10 µM: 6 hours, EGF stimulation
Method: as §1, §2, §3

MAPK phosphorylation [3] = experiment: Western MAPK cell-based phosphorylation assay, BxPC3; conditions: Homo sapiens; for inhibition at 10 µM: BXPC-3, 10 μM, 6 hours, EGF stimulation
Method: as §1, §2, §3

MAPK phosphorylation [4] = experiment: MAPK cell-based phosphorylation assay (ELISA or Western), PANC-1; conditions: Homo sapiens, PANC-1; for inhibition at 10 µM: 6 hours, EGF stimulation
Summary of the method: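 Serum-starved (0.5% FBS overnight) cells given compound at 10 μM or serial dilutions (0.3% DMSO) for 6 h at 37 °C, then 1.5 ng/mL EGF for 15 min. Phospho-MAPK read by fixed-cell ELISA (fluorescence, 595 nm) or by Western blot of lysates with anti-phospho-p44/42 (Thr202/Tyr204).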

MAPK phosphorylation [5] = experiment: Western MAPK cell-based phosphorylation assay, NCI H1975; conditions: Homo sapiens; for inhibition at 10 µM: 6 hours, EGF stimulation
Method: as §1, §2, §3

[6] = test system: BxPC3 pancreatic cancer cell line; experiment: Cell proliferation assay (DAPI); assay type: cell-based; conditions: Homo sapiens, BXPC-3
Summary of the method: (§4)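 After 2–4 days' exposure at 37 °C to 10 µM compound or serial dilutions (IC50), in 0.3% DMSO with 10% FBS, cells were acetone–methanol fixed and DAPI-stained for total DNA, read at 358 nm ex/461 nm em. Media: RPMI for NCI-H1975 and BxPC3, DMEM-high glucose for PANC-1 and MIA PaCa-2.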

[7] = test system: MIA PaCa-2 pancreatic cancer cell line; experiment: Cell proliferation assay (DAPI); assay type: cell-based; conditions: Homo sapiens, MIA PaCa-2; for inhibition at 10 µM: 2-4 days, read-out: % Inhibition of cell proliferation, MIA PaCa-2 % inh
Summary of the method: as §4

[8] = test system: PANC-1 pancreatic cancer cell line; experiment: Cell proliferation assay (DAPI); assay type: cell-based; conditions: Homo sapiens
Summary of the method: as §4

[9] = test system: NCI H1975 non-small-cell lung cancer cell line; experiment: Cell proliferation assay (DAPI); assay type: cell-based; conditions: Homo sapiens
Summary of the method: as §4

[10] = test system: NCI H1299 non-small-cell lung cancer cell line; experiment: Cell proliferation assay (DAPI); assay type: cell-based; conditions: Homo sapiens

Structure (SMILES) | IC50 [6] [nM] | IC50 [7] [nM] | IC50 [8] [nM] | inhibition at 10 µM (AKT phosphorylation) [%] | inhibition at 10 µM (MAPK phosphorylation [1]) [%] | inhibition at 10 µM (MAPK phosphorylation [2]) [%] | inhibition at 10 µM (MAPK phosphorylation [3]) [%] | inhibition at 10 µM (MAPK phosphorylation [4]) [%] | inhibition at 10 µM (MAPK phosphorylation [5]) [%] | inhibition at 10 µM [7] [%] | IC50 [9] [nM] | IC50 [10] [nM] | also measured
CO[C@H]1CCC(Nc2nc(-c3nccn3C)nc3sc(-c4ccn(C)n4)c(-c4ccccc4)c23)C1 (stereo partly shown) [drawing 406] | – | – | – | 76 to 100 | 76 to 100 | 76 to 100 | 76 to 100 | 76 to 100 | 76 to 100 | – | – | – | –
COCCNc1nc(-c2cn(C)cn2)nc2sc(-c3ccccc3Cl)c(-c3ccc(OC)cc3)c12 [drawing 422] | – | – | – | 0 | 0 | 76 to 100 | 26 to 50 | 76 to 100 | 76 to 100 | – | – | – | –
COCCNc1nc(-c2nccn2C)nc2sc(-c3cccc(OC)c3Cl)c(-c3ccc(OC)cc3)c12 [drawing 420] | – | – | – | 26 to 50 | 0 | 76 to 100 | 1 to 25 | 76 to 100 | 76 to 100 | – | – | – | –
COCCNc1nc(-c2nccn2C)nc2sc(-c3ccccc3Cl)c(-c3ccc(OC)cc3)c12 [drawing 418] | – | – | – | 0 | 0 | 76 to 100 | 0 | 76 to 100 | 0 | – | – | – | –
COCC1CCN(c2nc(-c3nccn3C)nc3sc(-c4ccn(C)n4)c(-c4ccccc4)c23)C1 (stereo not shown) [drawing 408] | – | – | – | 0 | 26 to 50 | – | – | 76 to 100 | – | – | – | – | –
COCC(C)Nc1nc(-c2nccn2C)nc2sc(-c3ccccc3Cl)c(-c3cscn3)c12 (stereo not shown) [drawing 556] | – | – | – | – | – | – | – | – | – | 76 to 100 | > 1000 | > 1000 | –
COCCNc1nc(-c2nccn2C)nc2sc(-c3cccc(OC)c3Cl)c(-c3ccccc3)c12 [drawing 472] | – | – | – | – | – | – | – | – | – | – | – | – | IC50 (MAPK phosphorylation [1]): > 1000 nM; IC50 (MAPK phosphorylation [2]): 750 to 1000 nM; IC50 (MAPK phosphorylation [3]; BXPC-3): > 1000 nM; IC50 (MAPK phosphorylation [4]): 750 to 1000 nM; IC50 (MAPK phosphorylation [5]): > 1000 nM
COCCNc1nc(-c2nccn2C)nc2sc(-c3cccc(OC)c3)c(-c3ccc(OC)cc3)c12 [drawing 419] | – | – | – | 0 | 0 | 76 to 100 | 0 | 76 to 100 | 76 to 100 | – | – | – | –
CO[C@@H]1CCC(Nc2nc(-c3nccn3C)nc3sc(-c4ccn(C)n4)c(-c4ccccc4)c23)C1 (stereo partly shown) [drawing 407] | – | – | – | 0 | 26 to 50 | 0 | 0 | 76 to 100 | 26 to 50 | – | – | – | –
CO[C@H]1CCC(Nc2nc(-c3nccn3C)nc3sc(-c4ccn(C)n4)c(-c4ccccc4)c23)C1 (stereo partly shown) [drawing 474] | – | – | – | – | – | – | – | – | – | – | – | – | IC50 (MAPK phosphorylation [2]): > 1000 nM; IC50 (MAPK phosphorylation [4]): 750 to 1000 nM; IC50 (MAPK phosphorylation [5]): > 1000 nM
COCCNc1nc(-c2nccn2C)nc2sc(-c3cccc(OC)c3Cl)c(-c3ccccc3)c12 [drawing 425] | – | – | – | 76 to 100 | 76 to 100 | 76 to 100 | 76 to 100 | 76 to 100 | 76 to 100 | – | – | – | –

More lines, main results first:

IC50 [6] [nM] | IC50 [7] [nM] | IC50 [8] [nM] | Structure (SMILES) | inhibition at 10 µM (AKT phosphorylation) [%] | inhibition at 10 µM (MAPK phosphorylation [1]) [%] | inhibition at 10 µM (MAPK phosphorylation [2]) [%] | inhibition at 10 µM (MAPK phosphorylation [3]) [%] | inhibition at 10 µM (MAPK phosphorylation [4]) [%] | inhibition at 10 µM (MAPK phosphorylation [5]) [%] | inhibition at 10 µM [7] [%] | IC50 [9] [nM] | IC50 [10] [nM] | also measured
750 to 1000 | > 1000 | 750 to 1000 | COCC(C)Nc1nc(-c2nccn2C)nc2sc(-c3ccn(C)n3)c(-c3ccccc3)c12 (stereo not shown) [drawing 544] | – | – | – | – | – | – | 76 to 100 | – | – | –
750 to 1000 | > 1000 | 750 to 1000 | COCCCNc1nc(-c2nccn2C)nc2sc(-c3ccn(C)n3)c(-c3ccccc3)c12 [drawing 542] | – | – | – | – | – | – | 76 to 100 | – | – | –
750 to 1000 | 750 to 1000 | 750 to 1000 | CO[C@@H]1CCC(Nc2nc(-c3nccn3C)nc3sc(-c4ccn(C)n4)c(-c4ccccc4)c23)C1 (stereo partly shown) [drawing 549] | – | – | – | – | – | – | 76 to 100 | 750 to 1000 | 750 to 1000 | –
– | – | 750 to 1000 | COCC(C)Nc1nc(-c2nccn2C)nc2sc(-c3cccc(OC)c3)c(-c3cscn3)c12 (stereo not shown) [drawing 558] | – | – | – | – | – | – | 76 to 100 | > 1000 | > 1000 | –
500 to 749 | 500 to 749 | 500 to 749 | CO[C@H]1CCC(Nc2nc(-c3nccn3C)nc3sc(-c4ccn(C)n4)c(-c4ccccc4)c23)C1 (stereo partly shown) [drawing 548] | – | – | – | – | – | – | 76 to 100 | 500 to 749 | 750 to 1000 | –
750 to 1000 | 750 to 1000 | 500 to 749 | COCCNc1nc(-c2nccn2C)nc2sc(-c3cccc(OC)c3Cl)c(-c3ccc(OC)cc3)c12 [drawing 562] | – | – | – | – | – | – | 76 to 100 | 750 to 1000 | 750 to 1000 | –
750 to 1000 | 750 to 1000 | 500 to 749 | COCC1CCN(c2nc(-c3nccn3C)nc3sc(-c4ccn(C)n4)c(-c4ccccc4)c23)C1 (stereo not shown) [drawing 550] | – | – | – | – | – | – | 76 to 100 | > 1000 | > 1000 | –
> 1000 | > 1000 | > 1000 | Cn1ccc(-c2sc3nc(-c4nccn4C)nc(NCC4CCOC4)c3c2-c2ccccc2)n1 (stereo not shown) [drawing 547] | – | – | – | – | – | – | 76 to 100 | – | – | –
> 1000 | > 1000 | 750 to 1000 | COC1CCN(c2nc(-c3nccn3C)nc3sc(-c4ccn(C)n4)c(-c4ccccc4)c23)C1 (stereo not shown) [drawing 545] | – | – | – | – | – | – | 76 to 100 | – | – | –
